Test [1] deals with 5'-AMP-activated protein kinase catalytic subunit alpha-2 (Homo sapiens) (UniProt P54646). The experiment in a line: Inhibition of AMPKa2 labeling at conserved Lys1 (VAVKILNR) in human PBMC at 1 uM.
The target in test [2] is Cyclin-dependent kinase 5 (Homo sapiens) (UniProt Q00535). The test can be described thus: Inhibition of CDK5 labeling at conserved Lys1 (NRETHEIVALKR) in human PBMC at 1 uM.
Test [3] concerns the target Mitogen-activated protein kinase 3 (Homo sapiens) (UniProt P27361). The test can be described thus: Inhibition of Erk1 ATP binding site (DLKPSNLLINTTCDLK) in human PBMC at 1 uM.
Test [4] has as its target Tyrosine-protein kinase Fer (Homo sapiens) (UniProt P16591). The experiment in a line: Inhibition of FER conserved Lys2 (QEDGGVYSSSGLKQIPIK) in human PBMC at 1 uM.
The target in test [5] is Proto-oncogene tyrosine-protein kinase Src (Homo sapiens) (UniProt P12931). The test can be described thus: Inhibition of SRC ATP binding site (QGAKFPIKWTAPEAALYGR) in human PBMC at 1 uM.
Sequence of Proto-oncogene tyrosine-protein kinase Src (Homo sapiens) (P12931 2-536 limits assumed): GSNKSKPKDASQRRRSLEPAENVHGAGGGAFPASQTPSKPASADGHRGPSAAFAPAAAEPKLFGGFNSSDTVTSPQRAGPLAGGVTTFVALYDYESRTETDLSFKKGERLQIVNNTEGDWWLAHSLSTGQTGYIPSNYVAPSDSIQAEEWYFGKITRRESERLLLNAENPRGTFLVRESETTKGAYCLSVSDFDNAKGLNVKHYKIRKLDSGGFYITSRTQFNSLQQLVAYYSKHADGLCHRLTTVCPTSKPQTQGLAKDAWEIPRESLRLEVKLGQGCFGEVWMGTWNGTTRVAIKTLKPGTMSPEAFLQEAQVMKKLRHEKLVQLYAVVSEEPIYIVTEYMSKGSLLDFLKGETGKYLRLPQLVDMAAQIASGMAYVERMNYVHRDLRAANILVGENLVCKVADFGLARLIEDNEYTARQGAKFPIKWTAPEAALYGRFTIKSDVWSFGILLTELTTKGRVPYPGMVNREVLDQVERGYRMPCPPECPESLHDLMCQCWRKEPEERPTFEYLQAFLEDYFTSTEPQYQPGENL
Test [6] has as its target Mitogen-activated protein kinase kinase kinase 4 (Homo sapiens) (UniProt Q9Y6R4). The test can be described thus: Inhibition of MAP3K4 conserved Lys2 (DIKGANIFLTSSGLIK) in human PBMC at 1 uM.
Test [7] has as its target Myosin light chain kinase, smooth muscle (Homo sapiens) (UniProt Q15746). The experiment in a line: Inhibition of smMLCK conserved Lys1 (VWAGKFFK) in human PBMC at 1 uM.
For test [8], the target named is Serine/threonine-protein kinase WNK4 (Homo sapiens) (UniProt Q96J92). The test can be described thus: Inhibition of Wnk4 activation Loop (IGDLGLATLKR) in human PBMC at 1 uM.
Sequence of Serine/threonine-protein kinase WNK4 (Homo sapiens) (Q96J92 whole entry): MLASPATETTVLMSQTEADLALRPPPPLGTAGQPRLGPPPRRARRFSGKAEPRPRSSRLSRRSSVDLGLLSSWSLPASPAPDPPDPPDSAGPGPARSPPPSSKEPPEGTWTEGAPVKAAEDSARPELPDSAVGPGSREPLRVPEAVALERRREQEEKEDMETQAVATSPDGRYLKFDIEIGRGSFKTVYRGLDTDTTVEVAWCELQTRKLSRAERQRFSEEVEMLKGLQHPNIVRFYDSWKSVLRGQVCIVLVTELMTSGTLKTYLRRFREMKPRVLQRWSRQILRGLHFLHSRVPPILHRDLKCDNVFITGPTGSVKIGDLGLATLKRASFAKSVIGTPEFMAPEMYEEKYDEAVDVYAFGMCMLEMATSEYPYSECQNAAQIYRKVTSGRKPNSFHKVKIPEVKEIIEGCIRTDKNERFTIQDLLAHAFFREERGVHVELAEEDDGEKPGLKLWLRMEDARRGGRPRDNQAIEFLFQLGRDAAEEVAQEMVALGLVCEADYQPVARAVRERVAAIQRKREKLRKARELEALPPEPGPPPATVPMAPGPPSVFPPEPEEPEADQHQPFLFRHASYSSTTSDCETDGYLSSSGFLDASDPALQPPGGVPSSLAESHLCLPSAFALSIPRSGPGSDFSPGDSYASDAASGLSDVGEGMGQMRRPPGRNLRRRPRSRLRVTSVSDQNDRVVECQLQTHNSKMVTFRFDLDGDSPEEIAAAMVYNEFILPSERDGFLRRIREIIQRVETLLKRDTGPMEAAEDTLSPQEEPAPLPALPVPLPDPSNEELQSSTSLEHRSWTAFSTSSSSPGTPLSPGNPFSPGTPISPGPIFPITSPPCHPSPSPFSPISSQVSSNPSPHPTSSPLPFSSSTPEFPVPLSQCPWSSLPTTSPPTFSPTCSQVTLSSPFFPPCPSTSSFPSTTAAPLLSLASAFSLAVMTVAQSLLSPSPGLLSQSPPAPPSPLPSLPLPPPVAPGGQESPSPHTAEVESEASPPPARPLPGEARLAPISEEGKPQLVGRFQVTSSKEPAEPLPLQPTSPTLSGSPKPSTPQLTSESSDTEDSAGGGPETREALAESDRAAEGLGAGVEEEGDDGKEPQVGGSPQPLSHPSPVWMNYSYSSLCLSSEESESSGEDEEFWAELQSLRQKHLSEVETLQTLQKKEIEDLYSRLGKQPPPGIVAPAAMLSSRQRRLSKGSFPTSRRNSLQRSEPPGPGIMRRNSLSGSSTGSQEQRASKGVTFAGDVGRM
Test [9] addresses RAC-beta serine/threonine-protein kinase (Homo sapiens) (UniProt P31751). The test can be described thus: Inhibition of AKT2 labeling at ATP binding site (GTFGKVILVR) in human PBMC at 0.1 uM.
Test [10] concerns the target T1, Serine/threonine-protein kinase 4 (Homo sapiens) (UniProt Q13043).
T1 sequence (whole entry): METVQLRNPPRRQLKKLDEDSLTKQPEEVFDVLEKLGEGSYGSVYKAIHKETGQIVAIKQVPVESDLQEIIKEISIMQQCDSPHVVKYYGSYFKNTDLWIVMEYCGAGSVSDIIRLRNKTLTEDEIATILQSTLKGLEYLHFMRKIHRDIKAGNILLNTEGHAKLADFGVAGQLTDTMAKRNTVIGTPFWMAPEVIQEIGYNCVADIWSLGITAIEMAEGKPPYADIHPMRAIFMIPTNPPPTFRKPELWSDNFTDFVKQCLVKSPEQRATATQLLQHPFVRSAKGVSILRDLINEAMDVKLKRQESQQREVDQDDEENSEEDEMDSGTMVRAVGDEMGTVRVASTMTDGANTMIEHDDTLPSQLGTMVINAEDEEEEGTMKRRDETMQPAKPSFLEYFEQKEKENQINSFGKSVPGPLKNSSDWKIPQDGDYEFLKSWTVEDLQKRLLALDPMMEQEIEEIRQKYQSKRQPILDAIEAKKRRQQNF
The experiment in a line: Inhibition of MST1 conserved Lys1 ETGQIVAIKQVPVESDLQEIIK in human PBMC at 0.1 uM.

In test [11] the target is T2, Serine/threonine-protein kinase 3 (Homo sapiens) (UniProt Q13188).
T2 sequence (whole entry): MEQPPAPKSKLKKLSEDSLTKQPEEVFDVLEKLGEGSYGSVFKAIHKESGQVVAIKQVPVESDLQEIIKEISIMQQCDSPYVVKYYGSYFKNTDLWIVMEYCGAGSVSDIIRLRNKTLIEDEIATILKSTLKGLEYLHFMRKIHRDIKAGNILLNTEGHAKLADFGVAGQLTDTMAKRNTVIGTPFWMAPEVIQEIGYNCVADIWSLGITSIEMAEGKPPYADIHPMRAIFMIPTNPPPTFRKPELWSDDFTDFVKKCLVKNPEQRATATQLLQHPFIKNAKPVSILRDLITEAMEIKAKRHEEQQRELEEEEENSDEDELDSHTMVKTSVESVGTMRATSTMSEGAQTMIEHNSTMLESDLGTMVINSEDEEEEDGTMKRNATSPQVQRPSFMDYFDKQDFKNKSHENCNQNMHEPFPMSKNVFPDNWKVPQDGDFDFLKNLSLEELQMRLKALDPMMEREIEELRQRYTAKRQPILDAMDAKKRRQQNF
The test can be described thus: Inhibition of MST2 conserved Lys2 (DIKAGNILLNTEGHAK) in human PBMC at 0.1 uM.

Test [12] addresses T2, Serine/threonine-protein kinase 3 (Homo sapiens). The test can be described thus: Inhibition of MST2 conserved Lys1 (ESGQVVAIKQVPVESDLQEIIK) in human PBMC at 0.1 uM.
Test [13] concerns the target Serine/threonine-protein kinase Nek9 (Homo sapiens) (UniProt Q8TD19). The test can be described thus: Inhibition of NEK9 conserved Lys2 (DIKTLNIFLTK) in human PBMC at 0.1 uM.
The target of test [14] is Interferon-induced, double-stranded RNA-activated protein kinase (Homo sapiens) (UniProt P19525). The experiment in a line: Inhibition of PKR conserved Lys2 (DLKPSNIFLVDTK) in human PBMC at 0.1 uM.
In test [15] the target is Serine/threonine-protein kinase PLK1 (Homo sapiens) (UniProt P53350). The experiment in a line: Inhibition of PLK1 conserved Lys1 (CFEISDADTKEVFAGKIVPK) in human PBMC at 0.1 uM.
Sequence of Serine/threonine-protein kinase PLK1 (Homo sapiens) (P53350 whole entry): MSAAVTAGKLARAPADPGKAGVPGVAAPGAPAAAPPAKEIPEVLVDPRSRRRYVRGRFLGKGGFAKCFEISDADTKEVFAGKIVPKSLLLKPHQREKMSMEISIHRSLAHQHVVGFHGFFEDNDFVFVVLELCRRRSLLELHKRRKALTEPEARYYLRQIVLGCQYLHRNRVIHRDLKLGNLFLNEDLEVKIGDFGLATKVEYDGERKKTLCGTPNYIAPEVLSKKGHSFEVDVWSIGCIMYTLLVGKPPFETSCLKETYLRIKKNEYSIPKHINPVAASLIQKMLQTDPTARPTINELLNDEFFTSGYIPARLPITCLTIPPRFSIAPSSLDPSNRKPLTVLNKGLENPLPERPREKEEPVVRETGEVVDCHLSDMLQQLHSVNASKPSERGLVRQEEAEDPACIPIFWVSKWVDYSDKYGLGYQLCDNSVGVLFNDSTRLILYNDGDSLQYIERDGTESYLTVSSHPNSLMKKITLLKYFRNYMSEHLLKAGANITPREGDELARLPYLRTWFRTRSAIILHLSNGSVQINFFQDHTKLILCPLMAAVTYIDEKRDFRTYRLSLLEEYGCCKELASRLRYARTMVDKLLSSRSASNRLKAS
In test [16] the target is Ribosomal protein S6 kinase alpha-1 (Homo sapiens) (UniProt Q15418). The experiment in a line: Inhibition of RSK1 conserved Lys2 (DLKPENILLDEEGHIK) in human PBMC at 0.1 uM.

The structures appear in SMILES notation.

Sequence of Mitogen-activated protein kinase kinase kinase 4 (Homo sapiens) (Q9Y6R4 whole entry): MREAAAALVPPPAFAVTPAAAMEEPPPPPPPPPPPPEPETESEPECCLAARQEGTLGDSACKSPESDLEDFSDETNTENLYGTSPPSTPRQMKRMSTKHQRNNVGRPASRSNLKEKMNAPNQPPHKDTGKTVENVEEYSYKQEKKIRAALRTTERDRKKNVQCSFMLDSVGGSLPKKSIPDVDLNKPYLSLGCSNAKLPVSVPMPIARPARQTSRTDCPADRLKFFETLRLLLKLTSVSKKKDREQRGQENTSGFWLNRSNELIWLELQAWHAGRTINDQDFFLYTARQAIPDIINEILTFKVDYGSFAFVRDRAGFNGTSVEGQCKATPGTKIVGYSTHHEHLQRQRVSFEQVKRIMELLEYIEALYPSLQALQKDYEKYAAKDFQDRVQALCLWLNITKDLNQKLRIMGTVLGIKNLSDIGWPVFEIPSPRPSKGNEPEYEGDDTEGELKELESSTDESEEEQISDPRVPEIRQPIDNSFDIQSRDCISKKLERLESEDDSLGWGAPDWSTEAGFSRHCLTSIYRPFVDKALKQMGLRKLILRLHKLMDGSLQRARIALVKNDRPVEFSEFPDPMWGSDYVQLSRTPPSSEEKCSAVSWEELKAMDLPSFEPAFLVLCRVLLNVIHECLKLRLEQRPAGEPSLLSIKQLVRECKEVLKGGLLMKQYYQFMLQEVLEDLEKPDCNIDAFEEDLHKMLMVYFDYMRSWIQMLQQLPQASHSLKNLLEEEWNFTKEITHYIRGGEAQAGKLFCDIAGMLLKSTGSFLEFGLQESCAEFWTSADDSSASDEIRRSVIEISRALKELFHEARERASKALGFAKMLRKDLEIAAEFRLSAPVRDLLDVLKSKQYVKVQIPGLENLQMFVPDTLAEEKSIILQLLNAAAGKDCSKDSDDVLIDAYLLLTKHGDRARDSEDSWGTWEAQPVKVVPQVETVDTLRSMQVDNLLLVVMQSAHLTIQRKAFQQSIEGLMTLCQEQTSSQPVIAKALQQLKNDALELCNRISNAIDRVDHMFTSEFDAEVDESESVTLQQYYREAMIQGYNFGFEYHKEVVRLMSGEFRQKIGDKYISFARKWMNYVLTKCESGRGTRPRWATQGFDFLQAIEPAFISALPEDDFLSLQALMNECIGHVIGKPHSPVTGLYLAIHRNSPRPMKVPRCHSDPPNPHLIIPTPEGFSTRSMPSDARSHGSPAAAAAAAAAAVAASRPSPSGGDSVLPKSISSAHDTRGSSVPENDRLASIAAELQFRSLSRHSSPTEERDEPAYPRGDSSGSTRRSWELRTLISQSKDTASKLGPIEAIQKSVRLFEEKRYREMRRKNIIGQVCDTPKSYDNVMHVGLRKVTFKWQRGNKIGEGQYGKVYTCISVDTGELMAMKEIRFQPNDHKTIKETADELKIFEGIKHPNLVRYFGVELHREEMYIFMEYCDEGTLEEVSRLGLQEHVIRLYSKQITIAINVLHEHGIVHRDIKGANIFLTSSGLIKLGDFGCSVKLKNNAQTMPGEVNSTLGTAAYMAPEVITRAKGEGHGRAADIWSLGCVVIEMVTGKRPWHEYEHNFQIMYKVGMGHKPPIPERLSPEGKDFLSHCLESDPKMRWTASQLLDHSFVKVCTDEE
Sequence of Cyclin-dependent kinase 5 (Homo sapiens) (Q00535 whole entry, looked up): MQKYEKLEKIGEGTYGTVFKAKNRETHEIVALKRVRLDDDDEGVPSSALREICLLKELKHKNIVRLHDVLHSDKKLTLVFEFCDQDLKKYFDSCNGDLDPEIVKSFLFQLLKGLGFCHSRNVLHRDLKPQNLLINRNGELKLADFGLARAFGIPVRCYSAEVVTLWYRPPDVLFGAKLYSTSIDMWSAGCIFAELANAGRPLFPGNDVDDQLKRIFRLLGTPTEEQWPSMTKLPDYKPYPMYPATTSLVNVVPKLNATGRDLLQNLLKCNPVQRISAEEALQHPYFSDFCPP
Sequence of RAC-beta serine/threonine-protein kinase (Homo sapiens) (P31751 whole entry): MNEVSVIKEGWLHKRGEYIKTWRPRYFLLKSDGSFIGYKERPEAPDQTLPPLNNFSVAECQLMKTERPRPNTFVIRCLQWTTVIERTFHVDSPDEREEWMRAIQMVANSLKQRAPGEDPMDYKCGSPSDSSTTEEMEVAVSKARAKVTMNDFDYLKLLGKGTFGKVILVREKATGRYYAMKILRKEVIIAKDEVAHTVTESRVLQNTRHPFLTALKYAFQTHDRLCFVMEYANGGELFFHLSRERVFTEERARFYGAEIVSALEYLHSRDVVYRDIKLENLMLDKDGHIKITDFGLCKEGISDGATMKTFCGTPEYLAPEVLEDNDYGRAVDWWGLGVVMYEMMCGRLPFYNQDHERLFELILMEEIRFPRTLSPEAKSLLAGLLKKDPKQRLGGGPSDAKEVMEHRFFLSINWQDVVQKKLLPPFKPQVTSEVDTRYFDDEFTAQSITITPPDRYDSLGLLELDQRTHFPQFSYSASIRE

With `CC(C)n1cc(-c2cc(-c3ccc(CN4CCOCC4)cc3)cnc2N)nn1`, the inhibition (usually the change of the read-out against control, counted positive when it falls) in [1] was 17.3%; in [2], 1.9%; in test [3] it was 4.2%; in [4], 5.2%; in test [5] it was -2.3%; in [6] it was -0.5%. In addition, the inhibition was 26% in [7]; 21.9% in test [8]; 17.1% in [9]; -6.6% in test [10]; 1.3% in test [11]; 7.7% in [12]. For the same compound, the inhibition in test [13] turned out to be 26.5%; in test [14], 13.7%; in test [15] it was 24.7%; in test [16] it was 11.8%.

These data come from ChEMBL document CHEMBL4043168, “The design and SAR of a novel series of 2-aminopyridine based LRRK2 inhibitors” (Bioorg Med Chem Lett, 2017).
